Experimental data: article PMC7004409 (PLoS Pathogens, 2020)

How the values were obtained:
Format in all cases: biochemical
[1] = biological target: T1, HIV-1 GagΔMA (GagΔMAΔp1Δp6) (Human immunodeficiency virus type 1 (NEW YORK-5 ISOLATE), UniProt P12493); details: GT25 oligo, pH 6
T1 construct: gene gag; Gag lacking MA, p1 and p6 (CA-SP1-NC); SUMO-tag purification, E. coli

SIV GagΔMA = biological target: T2, SIV GagΔMA (Simian immunodeficiency virus (MM251 ISOLATE), UniProt P05893); details: 50 mM Tris pH 8, 100 mM NaCl, GT25 oligo, dialysis, 22 °C
T2 construct: gene gag; Gag lacking MA; SUMO-tag purification

HIV-2 GagΔMA = biological target: T3, HIV-2 GagΔMA (Human immunodeficiency virus type 2 (ISOLATE ROD), UniProt P04590); details: 50 mM Tris pH 8, 100 mM NaCl, GT25 oligo, dialysis, 22 °C
T3 construct: gene gag; Gag lacking MA; SUMO-tag purification

FIV GagΔMA = biological target: T4, FIV GagΔMA (Feline immunodeficiency virus (isolate Petaluma), UniProt P16087); details: 50 mM Bis-Tris propane, 150 mM NaCl, GT50 oligo, dilution, 22 °C
T4 construct: gene gag; Gag lacking MA; SUMO-tag purification

BIV GagΔMA = biological target: T5, BIV GagΔMA (Bovine immunodeficiency virus R29, UniProt P19558); details: 50 mM MES pH 6.5, 100 mM NaCl, GT50 oligo, dilution, 22 °C
T5 construct: gene gag; Gag lacking MA; SUMO-tag purification

O=P(O)(O)O[C@@H]1[C@@H](OP(=O)(O)O)[C@H](OP(=O)(O)O)[C@H](O)[C@H](OP(=O)(O)O)[C@H]1OP(=O)(O)O [IP5]
fold increase of round VLPs at 10 μM [1]: 1000 fold

O=P(O)(O)O[C@H]1[C@H](OP(=O)(O)O)[C@@H](OP(=O)(O)O)[C@H](OP(=O)(O)O)[C@@H](OP(=O)(O)O)[C@H]1OP(=O)(O)O [IP6]
VLP number with / without IP6 (SIV GagΔMA): in the presence of IP6, spherical VLP assembly consistent with an immature lattice was observed | VLP number with / without IP6 (HIV-2 GagΔMA): in the presence of IP6, spherical VLP assembly consistent with an immature lattice was observed | VLP number with / without IP6 (FIV GagΔMA): in the presence of IP6, spherical VLP assembly consistent with an immature lattice was observed | VLP number with / without IP6 (BIV GagΔMA): in the presence of IP6, spherical VLP assembly consistent with an immature lattice was observed
